Structures can show the parent of a compound that is named as a salt. Where two headings read alike, the source gives them in different places.
What was measured:
[1] = tested on: patients suffering from non-constipated irritable bowel syndrome; details: 1 to 8 mg twice daily, cited from earlier work
[2] = tested on: male and female patients suffering from diarrhea-predominant irritable bowel syndrome (IBS); assay: Clinical study with patients suffering from diarrhea-predominant irritable bowel syndrome (Test Example 1); format: in vivo, human; details: for final monthly responder rate in the global assessment of relief of overall IBS symptoms: placebo group 26.9%
Procedure: Clinical study was carried out under the following condition using male and female patients suffering from diarrhea-predominant irritable bowel syndrome (IBS) as subjects.
Subjects: Patients suffering from diarrhea-predominant IBS in accordance with the Rome II Diagnosis Criteria (D. A. Drossman, et al., pages 351 to 432, ROME II: The functional Gastrointestinal Disorders, Second Edition, Degnon Associates, McLean, 2000).
Test drugs and Administration Methods: Placebo and ramosetron hydrochloride were orally administered for 12 weeks at 0.005 mg or 0.01 mg once daily.
Test Periods: Observation period for one week and treating period for 12 weeks
After transition to the treating period, the starting date for administration of the test drug was defined as the first day. Every week, global assessment of relief of overall IBS symptoms was evaluated taking all symptoms by IBS of the subjects into consideration, comparing with their state in the observation period, and this evaluation was recorded in a patient diary. Incidentally, scores for the global assessment of relief of overall IBS symptoms were as follows.
The subjects where the score was 0 or 1 for two weeks or more during the four weeks were made monthly responders and the monthly responder rate per month was calculated separately for each group of 0.005 mg and 0.01 mg of placebo and ramosetron hydrochloride.
After transition to the treating period, the starting date for administration of the test drug was defined as the first day. Every week, global assessment of relief of abdominal discomfort/pain by the test drug was evaluated with the state in the observation period and was recorded in a patient diary. Incidentally, scores for the global assessment of relief of abdominal discomfort/pain were as follows.
After transition to the treating period, the starting date for administration of the test drug was defined as the first day. Every week, global assessment of improvement of abnormal bowel habits was evaluated comparing with the state in the observation period, and was recorded in a patient diary. Incidentally, scores for the global assessment of improvement of abnormal bowel habits were as follows.
With regard to (1) to (3) for the subsidiary evaluation items, they were also subjected to calculations of monthly responder rate the same as those for the main evaluation items.

[3] = tested on: patients suffering from irritable bowel syndrome; assay: Former clinical studies, ramosetron hydrochloride administered twice daily to patients suffering from irritable bowel syndrome; format: in vivo, human
Description: The present inventors have carried out intensive investigations for the purpose of creation of novel treating agents for irritable bowel syndrome including non-constipated irritable bowel syndrome such as diarrhea-predominant irritable bowel syndrome and alternating constipation/diarrhea irritable bowel syndrome for which no sufficiently effective treating agent has been available.

[4] = 0.005 mg and 0.01 mg once daily, 12 weeks

Cc1[nH]cnc1CN1CCc2c(c3ccccc3n2C)C1=O [alosetron]
relief of pain and discomfort, stool consistency, bowel movement frequency and proportion of days with urgency, compared with placebo ([1]; female patients): significant improvement was noted in female patients
relief of pain and discomfort, stool consistency, bowel movement frequency and proportion of days with urgency, compared with placebo ([1]; male patients): no significant improvement was noted as compared with placebo except stool consistency

Cn1cc(C(=O)[C@@H]2CCc3[nH]cnc3C2)c2ccccc21 [ramosetron hydrochloride, (−)-(R)-5-[(1-methyl-1H-indol-3-yl)carbonyl]-4,5,6,7-tetrahydro-1H-benzimidazole]
difference in the responder rates between placebo group and ramosetron group: male versus female patients ([2]; 0.005 mg and 0.01 mg once daily): no difference was noted between male and female patients
final monthly responder rate in the global assessment of relief of abdominal discomfort/pain, better than the placebo group [2, 4]: more than 10%
final monthly responder rate in the global assessment of relief of abnormal bowel habits, better than the placebo group [2, 4]: more than 10%
therapeutic effect in patients suffering from diarrhea-predominant irritable bowel syndrome (conclusion) ([2]; 0.005 mg and 0.01 mg, administration once daily): effective for both males and females
final monthly responder rate in the global assessment of relief of overall IBS symptoms ([2]; 0.005 mg orally once daily, 12 weeks, p 0.0273 to placebo): 42.6%
final monthly responder rate in the global assessment of relief of overall IBS symptoms ([2]; 0.01 mg orally once daily, 12 weeks, p 0.0264 to placebo): 43.0%
monthly responder rate (overall IBS symptoms) in excess of the responder rate in the placebo group ([2]; groups of 0.005 mg and 0.01 mg once daily, 12 weeks): more than 15%
therapeutic effect as compared with placebo [3]: significant therapeutic effect as compared with placebo was unable to be confirmed
